Experimental findings from US20220289758A1, “7-OXA-3,4-DIAZABICYCLO [4.1.0] HEPT-4-EN-2-ONE COMPOUND AND HERBICIDE” (Nippon Soda Co., Ltd., priority 2019, published 2022) are described below.

One data set relates to Abutilon theophrasti. Kind of data set: Foliar spraying treatment, weed killing rate. Type of data set: in vivo. The note with it: 504 h, read-out: herbicidal activity; for pest or weed control at 250 g/ha: foliar spray, 250 g per hectare, after 3 weeks (Table 5); for pest or weed control at 1000 g/ha: foliar spray, 1,000 g per hectare, after 3 weeks (Table 4). Here is the method:
(§1) (1) Preparation of Test Emulsion
(§2) POA allylphenyl ether (4.1 parts by weight), POE-POP glycol (1 part by weight), POE sorbitan laurate (0.8 parts by weight), glycerin (2.6 parts by weight), dimethylformamide (65.9 parts by weight), N-methylpyrrolidone (5.1 parts by weight), cyclohexanone (15.4 parts by weight), and aromatic hydrocarbons (5.1 parts by weight) were mixed and dissolved to prepare an emulsion. The compound of the present invention (4 mg) was dissolved in this emulsion (100 μL) to prepare a test emulsion. POA means “polyoxyalkylene”, POE means “polyoxyethylene”, and POP means “polyoxypropylene”.
(§3) (2) Foliar Spraying Treatment
(§4) A 150 cm^2 pot was filled with soil, and seeds of Avena sativa, Matricaria chamomilla, Setaria faberi, Digitaria ciliaris, Abutilon theophrasti and Amaranthus retroflexus were sown into the surface layer which was covered lightly with soil. Thereafter, they were grown in a greenhouse. When each plant grew to a plant height of 2 to 4 cm, the above test emulsion was diluted so that the amount of the active ingredient became a predetermined amount, and sprayed on the foliage with a small sprayer at a spray water volume of 250 L per hectare.
(§5) After 3 weeks, above ground weights of weeds in the untreated and treated areas were measured for each weed, and the weed killing rate was calculated by the following calculation formula.
(§6) (4) Calculation Formula for Weed Killing Rate
(§7) Weed killing rate (%)=[(above ground weight of weeds in untreated area)−(above ground weight of weeds in treated area)/(above ground weight of weeds in untreated area)]×100

In the next data set the test system is Amaranthus retroflexus. Kind of data set: Foliar spraying treatment, weed killing rate. Type of data set: in vivo. Conditions: 504 h, read-out: herbicidal activity; for pest or weed control at 250 g/ha: foliar spray, 250 g per hectare, after 3 weeks (Table 15); for pest or weed control at 1000 g/ha: foliar spray, 1,000 g per hectare, after 3 weeks (Table 14). Here is the method:
as §1, §2, §3, §4, §5, §6, §7

A further data set concerns Digitaria ciliaris. Kind of data set: Foliar spraying treatment, weed killing rate. Type of data set: in vivo. The note with it: 504 h, read-out: herbicidal activity; for pest or weed control at 250 g/ha: foliar spray, 250 g per hectare, after 3 weeks (Table 13); for pest or weed control at 1000 g/ha: foliar spray, 1,000 g per hectare, after 3 weeks (Table 12). As for the experimental part:
as §1, §2, §3, §4, §5, §6, §7

The test system of a further data set is Matricaria chamomilla. Kind of data set: Foliar spraying treatment, weed killing rate. Type of data set: in vivo. Conditions: 504 h, read-out: herbicidal activity; for pest or weed control at 250 g/ha: foliar spray, 250 g per hectare, after 3 weeks (Table 7); for pest or weed control at 1000 g/ha: foliar spray, 1,000 g per hectare, after 3 weeks (Table 6). As for the experimental part:
as §1, §2, §3, §4, §5, §6, §7

Another data set deals with Setaria faberi. Kind of data set: Foliar spraying treatment, weed killing rate. Conditions: 504 h, read-out: herbicidal activity; for pest or weed control at 250 g/ha: foliar spray, 250 g per hectare, after 3 weeks (Table 11); for pest or weed control at 1000 g/ha: foliar spray, 1,000 g per hectare, after 3 weeks (Table 10). It is filed as in vivo. As for the experimental part:
as §1, §2, §3, §4, §5, §6, §7

As for `COC12OC1(c1ccc(C(F)(F)F)c3c1CCCS3(=O)=O)C=NN(C)C2=O` (centres unmarked) [Compound B-1, 1-methoxy-3-methyl-6-(1,1-dioxido-8-(trifluoromethyl)thiochroman-5-yl)-7-oxa-3,4-diazabicyclo [4.1.0] hept-4-en-2-one], the pest or weed control at 250 g/ha in the data set on Abutilon theophrasti, with Amaranthus retroflexus, in the data set with Digitaria ciliaris, in the data set on Matricaria chamomilla and in the data set with Setaria faberi was ≥ 80% in each case. Also, the pest or weed control at 1000 g/ha in the data set on Abutilon theophrasti, in the data set on Amaranthus retroflexus, in the data set on Digitaria ciliaris, with Matricaria chamomilla and in the data set on Setaria faberi was ≥ 80% each time.

What is called melting point is the temperature of the solid-liquid transition. Turning to `COC12OC1(c1cc(F)c(C(F)(F)F)c3c1CCCS3(=O)=O)C=NN(C)C2=O` (centres unmarked) [Compound B-16], the melting point fell in the range of 205 to 206 °C. In addition, the pest or weed control at 1000 g/ha with Abutilon theophrasti is ≥ 80%. Also, the pest or weed control at 1000 g/ha in the data set on Amaranthus retroflexus was ≥ 80%. In addition, the pest or weed control at 1000 g/ha in the data set on Digitaria ciliaris was ≥ 80%. Further, the pest or weed control at 1000 g/ha with Matricaria chamomilla is ≥ 80%. Besides, the pest or weed control at 1000 g/ha in the data set on Setaria faberi was ≥ 80%.

As to `COC12OC1(c1ccc(C(F)(F)F)c3c1OCCS3(=O)=O)C=NN(C)C2=O` (centres unmarked) [Compound B-13], the pest or weed control at 250 g/ha with Abutilon theophrasti, in the data set with Amaranthus retroflexus and in the data set on Matricaria chamomilla was ≥ 80% in each case. Also, the pest or weed control at 1000 g/ha with Abutilon theophrasti, in the data set with Amaranthus retroflexus, in the data set with Digitaria ciliaris and in the data set on Matricaria chamomilla was ≥ 80% each time.

Consider `COC12OC1(c1ccc(C(F)(F)F)c3c1CCCCS3(=O)=O)C=NN(C)C2=O` (centres unmarked) [Compound B-9], for which the pest or weed control at 250 g/ha in the data set with Abutilon theophrasti, in the data set with Amaranthus retroflexus, with Digitaria ciliaris, in the data set on Matricaria chamomilla and with Setaria faberi was ≥ 80% throughout. In addition, the pest or weed control at 1000 g/ha in the data set on Abutilon theophrasti, with Amaranthus retroflexus, with Digitaria ciliaris, in the data set with Matricaria chamomilla and in the data set with Setaria faberi was ≥ 80% throughout.

`COC12OC1(c1ccc(C(F)(F)F)c3c1CCS3(=O)=O)C=NN(C)C2=O` (centres unmarked) [Compound B-10]: the melting point fell in the range of 172 to 177 °C. Further, in the data set on Abutilon theophrasti, the pest or weed control at 250 g/ha is ≥ 80% and the pest or weed control at 1000 g/ha is ≥ 80%. Further, in the data set with Amaranthus retroflexus, the pest or weed control at 250 g/ha is ≥ 80% and the pest or weed control at 1000 g/ha was ≥ 80%. In addition, in the data set with Matricaria chamomilla, the pest or weed control at 250 g/ha was ≥ 80% and the pest or weed control at 1000 g/ha is ≥ 80%.

`CN1N=CC2(c3ccc(C(F)(F)F)c4c3CCCS4(=O)=O)OC2(OCc2ccn(CC(F)(F)F)n2)C1=O` (centres unmarked) [Compound B-3] gave a melting point of 112 to 117 °C. Besides, in the data set with Abutilon theophrasti, the pest or weed control at 250 g/ha is ≥ 80%. Moreover, the pest or weed control at 250 g/ha with Amaranthus retroflexus was ≥ 80%. Besides, in the data set on Setaria faberi, the pest or weed control at 250 g/ha was ≥ 80%.

With `CN1N=CC2(c3ccc(C(F)(F)F)c4c3CCCS4(=O)=O)OC2(OCCON2C(=O)c3ccccc3C2=O)C1=O` (centres unmarked) [Compound B-2], the pest or weed control at 250 g/ha in the data set on Abutilon theophrasti, in the data set with Amaranthus retroflexus, in the data set on Digitaria ciliaris, with Matricaria chamomilla and in the data set on Setaria faberi was ≥ 80% in each case.

In turn, `COC12OC1(c1cc3c(cc1S(C)(=O)=O)CCC3)C=NN(C)C2=O` (centres unmarked) [Compound B-6] showed a melting point of 150 to 153 °C. Moreover, in the data set with Abutilon theophrasti, the pest or weed control at 250 g/ha is ≥ 80% and the pest or weed control at 1000 g/ha is ≥ 80%. In addition, in the data set with Amaranthus retroflexus, the pest or weed control at 250 g/ha was ≥ 80% and the pest or weed control at 1000 g/ha was ≥ 80%. Further, in the data set with Digitaria ciliaris, the pest or weed control at 250 g/ha was ≥ 80% and the pest or weed control at 1000 g/ha was ≥ 80%. Moreover, in the data set on Matricaria chamomilla, the pest or weed control at 250 g/ha was ≥ 80% and the pest or weed control at 1000 g/ha was ≥ 80%.

With `COC12OC1(c1ccc(C(F)(F)F)c(S(C)(=O)=Nc3ccc(Cl)cc3)c1C)C=NN(C)C2=O` (centres unmarked) [Compound B-15], the pest or weed control at 250 g/ha in the data set on Abutilon theophrasti, with Amaranthus retroflexus, in the data set with Digitaria ciliaris, with Matricaria chamomilla and in the data set with Setaria faberi was ≥ 80% throughout.

Turning to `COC12OC1(c1ccc(C(F)(F)F)c3c1CCCO3)C=NN(C)C2=O` (centres unmarked) [Compound B-8], the melting point fell in the range of 153 to 155 °C. In addition, the pest or weed control at 1000 g/ha with Abutilon theophrasti was ≥ 80%. In addition, in the data set on Amaranthus retroflexus, the pest or weed control at 250 g/ha is ≥ 80% and the pest or weed control at 1000 g/ha is ≥ 80%.

Take `COC12OC1(c1ccc(C(F)(F)F)c(N=S3(=O)CCCCC3)c1Cl)C=NN(C)C2=O` (centres unmarked) [Compound B-4]: the melting point lay within 158 to 161 °C. For the same compound, the pest or weed control at 250 g/ha in the data set with Setaria faberi was ≥ 80%.

`COC12OC1(c1cccc3c1CCCS3(=O)=O)C=NN(C)C2=O` (centres unmarked) [Compound B-7] returned a melting point of 179 to 181 °C. In addition, the pest or weed control at 1000 g/ha with Abutilon theophrasti is ≥ 80%. The pest or weed control at 1000 g/ha with Amaranthus retroflexus was ≥ 80%. For the same compound, the pest or weed control at 1000 g/ha in the data set on Digitaria ciliaris is ≥ 80%. In the data set with Matricaria chamomilla, the pest or weed control at 250 g/ha was ≥ 80% and the pest or weed control at 1000 g/ha is ≥ 80%. The pest or weed control at 1000 g/ha in the data set with Setaria faberi was ≥ 80%.

As for `COC12OC1(c1cc(C)c3c(c1C)C1(CCS3(=O)=O)OCCO1)C=NN(C)C2=O` (centres unmarked) [Compound B-11], the pest or weed control at 250 g/ha with Abutilon theophrasti, in the data set with Amaranthus retroflexus and with Digitaria ciliaris was ≥ 80% each time. The pest or weed control at 1000 g/ha in the data set with Abutilon theophrasti, in the data set with Amaranthus retroflexus, in the data set with Digitaria ciliaris, in the data set on Matricaria chamomilla and in the data set on Setaria faberi was ≥ 80% each time.

Consider `COC12OC1(c1ccc3c(c1C)S(=O)(=O)CCC3(C)C)C=NN(C)C2=O` (centres unmarked) [Compound B-12], for which the pest or weed control at 1000 g/ha in the data set with Abutilon theophrasti, in the data set with Amaranthus retroflexus, with Digitaria ciliaris and in the data set with Matricaria chamomilla was ≥ 80% in each case.

Regarding `COC12OC1(c1ccc(C(F)(F)F)cc1S(C)(=O)=O)C=NN(C)C2=O` (centres unmarked) [Compound A-1, 1-methoxy-3-methyl-6-(2-(methylsulfonyl)-4-(trifluoromethyl)phenyl)-7-oxa-3,4-diazabicyclo [4.1.0] hept-4-en-2-one], the melting point came out at 128 °C. Further, in the data set on Abutilon theophrasti, the pest or weed control at 250 g/ha is ≥ 80% and the pest or weed control at 1000 g/ha was ≥ 80%. Further, in the data set on Amaranthus retroflexus, the pest or weed control at 250 g/ha is ≥ 80% and the pest or weed control at 1000 g/ha was ≥ 80%. In addition, in the data set on Digitaria ciliaris, the pest or weed control at 250 g/ha was ≥ 80% and the pest or weed control at 1000 g/ha was ≥ 80%. Also, in the data set on Matricaria chamomilla, the pest or weed control at 250 g/ha is ≥ 80% and the pest or weed control at 1000 g/ha is ≥ 80%. Also, in the data set with Setaria faberi, the pest or weed control at 250 g/ha is ≥ 80% and the pest or weed control at 1000 g/ha is ≥ 80%.

With `COC12OC1(c1ccc(C(F)(F)F)c3c1S(=O)(=O)CCC3)C=NN(C)C2=O` (centres unmarked) [Compound B-5], the melting point lay within 132 to 134 °C. The pest or weed control at 250 g/ha with Abutilon theophrasti is ≥ 80%. In the data set with Amaranthus retroflexus, the pest or weed control at 250 g/ha is ≥ 80%. For the same compound, the pest or weed control at 250 g/ha in the data set with Digitaria ciliaris is ≥ 80%. In the data set with Matricaria chamomilla, the pest or weed control at 250 g/ha is ≥ 80%. Further, the pest or weed control at 250 g/ha in the data set with Setaria faberi is ≥ 80%.

Compound `COC12OC1(c1ccc(C(F)(F)F)cc1S(C)(=O)=O)C=NN(C1CCCCO1)C2=O` (centres unmarked) [Compound B-14] gave a melting point of 65 to 66 °C. In the data set on Amaranthus retroflexus, the pest or weed control at 250 g/ha is ≥ 80% and the pest or weed control at 1000 g/ha is ≥ 80%. Besides, the pest or weed control at 1000 g/ha in the data set with Digitaria ciliaris was ≥ 80%. Besides, the pest or weed control at 1000 g/ha with Setaria faberi is ≥ 80%.
